Target: T1, G12D-mutant human KRAS (amino acid residues 1-188) (Homo sapiens, UniProt P01116, G12D)
T1 construct: G12D or G12C-mutant human KRAS (amino acid residues 1-188) with FLAG tag; made in house; host or cells: E. coli
Experiment: KRAS Binding Disruption Assay (AlphaScreen; biotinylated KRpep-2d analogue or RAF1-RBD), G12D
Settings: KRAS G12D; geometric mean; read-out: KRAS GMean IC50 (uM) MUTATION: G12D
Procedure, shortened: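 Mutant KRAS (5-20 nM) incubated 1 h at 25° C with test compound and 5-20 nM biotinylated KRpep-2d analogue or RAF1-RBD in 20 mM HEPES pH 7.5, 100 mM NaCl, 5 mM MgCl2, 0.01% Tween-20, 0.01% BSA.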

T1 sequence (P01116 1-188 isoform P01116-2 G12D): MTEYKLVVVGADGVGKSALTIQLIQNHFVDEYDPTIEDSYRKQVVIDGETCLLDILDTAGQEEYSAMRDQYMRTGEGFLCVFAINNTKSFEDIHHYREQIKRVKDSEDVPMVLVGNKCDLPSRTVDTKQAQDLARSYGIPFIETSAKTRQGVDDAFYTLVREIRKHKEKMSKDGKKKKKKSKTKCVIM

Structure (SMILES)	IC50 [µM]
CCc1cccc2c1N(c1ccc3c(N4C[C@H]5CC[C@@H](C4)N5)nc(OC[C@@H]4CCCN4C)nc3c1F)CCC2 [P-0560, 4-((1R,5S)-3,8-diazabicyclo[3.2.1]octan-3-yl)-7-(8-ethyl-3,4-dihydroquinolin-1(2H)-yl)-8-fluoro-2-(((S)-1-methylpyrrolidin-2-yl)methoxy)quinazoline]	0.0001 to 10
Fc1cc(Cl)c2c(-c3ccc4c(N5C[C@H]6CC[C@@H](C5)N6)nc(OCC56CCCN5CCC6)nc4c3F)c[nH]c2c1 [P-0561, 4-((1R,5S)-3,8-diazabicyclo[3.2.1]octan-3-yl)-7-(4-chloro-6-fluoro-1H-indol-3-yl)-8-fluoro-2-((tetrahydro-1H-pyrrolizin-7a(5H)-yl)methoxy)quinazoline]	0.0001 to 10
Oc1cc(-c2nc(N3C[C@H]4CC[C@@H](C3)N4)c3ccc(-c4cc(O)cc5ccccc45)c(F)c3n2)c2ccccc2c1 [P-0562, 4,4′-(4-((1R,5S)-3,8-diazabicyclo[3.2.1]octan-3-yl)-8-fluoroquinazoline-2,7-diyl)bis(naphthalen-2-ol)]	10 to 100
Oc1cc(-c2ccc3c(N4C[C@H]5CC[C@@H](C4)N5)nc(N4CC5(CCC(O)C5)C4)nc3c2F)c2ccccc2c1 (stereo partly drawn) [P-0563, 2-(4-((1R,5S)-3,8-diazabicyclo[3.2.1]octan-3-yl)-8-fluoro-7-(3-hydroxynaphthalen-1-yl)quinazolin-2-yl)-2-azaspiro[3.4]octan-6-ol]	0.0001 to 10
OCCC1CN(c2nc(N3C[C@H]4CC[C@@H](C3)N4)c3ccc(-c4cc(O)cc5ccccc45)c(F)c3n2)C1 [P-0564, 4-(4-((1R,5S)-3,8-diazabicyclo[3.2.1]octan-3-yl)-8-fluoro-2-(3-(2-hydroxyethyl)azetidin-1-yl)quinazolin-7-yl)naphthalen-2-ol]	0.0001 to 10
CN(C)CC1CN(c2nc(N3C[C@H]4CC[C@@H](C3)N4)c3ccc(-c4cc(O)cc5ccccc45)c(F)c3n2)C1 [P-0565, 4-(4-((1R,5S)-3,8-diazabicyclo[3.2.1]octan-3-yl)-2-(3-((dimethylamino)methyl)azetidin-1-yl)-8-fluoroquinazolin-7-yl)naphthalen-2-ol]	0.0001 to 10
Fc1c(-c2c[nH]c3cncc(Cl)c23)ccc2c(N3C[C@H]4CC[C@@H](C3)N4)nc(OCC34CCCN3CCC4)nc12 [P-0566, 4-((1R,5S)-3,8-diazabicyclo[3.2.1]octan-3-yl)-7-(4-chloro-1H-pyrrolo[2,3-c]pyridin-3-yl)-8-fluoro-2-((tetrahydro-1H-pyrrolizin-7a(5H)-yl)methoxy)quinazoline]	0.0001 to 10
COCc1cccc2[nH]cc(-c3ccc4c(N5C[C@H]6CC[C@@H](C5)N6)nc(OCC56CCCN5CCC6)nc4c3F)c12 [P-0567, 4-((1R,5S)-3,8-diazabicyclo[3.2.1]octan-3-yl)-8-fluoro-7-(4-(methoxymethyl)-1H-indol-3-yl)-2-((tetrahydro-1H-pyrrolizin-7a(5H)-yl)methoxy)quinazoline]	0.0001 to 10
CN(CC(C)(C)CO)c1nc(N2C[C@H]3CC[C@@H](C2)N3)c2ccc(-c3cc(O)cc4ccccc34)c(F)c2n1 [P-0568, 4-(4-((1R,5S)-3,8-diazabicyclo[3.2.1]octan-3-yl)-8-fluoro-2-((3-hydroxy-2,2-dimethylpropyl)(methyl)amino)quinaz-olin-7-yl)naphthalen-2-ol]	10 to 100
OCC1(COc2nc(N3C[C@H]4CC[C@@H](C3)N4)c3ccc(-c4cc(O)cc5ccccc45)c(F)c3n2)CC2(CCC2)C1 [P-0569, 4-(4-((1R,5S)-3,8-diazabicyclo[3.2.1]octan-3-yl)-8-fluoro-2-((2-(hydroxymethyl)spiro[3.3]heptan-2-yl)methoxy)quinazolin-7-yl)naphthalen-2-ol]	0.0001 to 10
Fc1c(-c2cccc3cccc(Cl)c23)ccc2c(N3C[C@H]4CC[C@@H](C3)N4)nc(OCC34CCCN3CCC4)nc12 [P-0570, 4-((1R,5S)-3,8-diazabicyclo[3.2.1]octan-3-yl)-7-(8-chloronaphthalen-1-yl)-8-fluoro-2-((tetrahydro-1H-pyrrolizin-7a(5H)-yl)methoxy)quinazoline]	0.0001 to 10
Fc1c(-c2cccc3cccc(Br)c23)ccc2c(N3C[C@H]4CC[C@@H](C3)N4)nc(OCC34CCCN3CCC4)nc12 [P-0571, 4-((1R,5S)-3,8-diazabicyclo[3.2.1]octan-3-yl)-7-(8-bromonaphthalen-1-yl)-8-fluoro-2-((tetrahydro-1H-pyrrolizin-7a(5H)-yl)methoxy)quinazoline]	0.0001 to 10
Fc1c(-c2cncc3cccc(Cl)c23)ccc2c(N3C[C@H]4CC[C@@H](C3)N4)nc(OCC34CCCN3CCC4)nc12 [P-0572, 4-((1R,5S)-3,8-diazabicyclo[3.2.1]octan-3-yl)-7-(5-chloroisoquinolin-4-yl)-8-fluoro-2-((tetrahydro-1H-pyrrolizin-7a(5H)-yl)methoxy)quinazoline]	0.0001 to 10
COCCc1cccc2[nH]cc(-c3ccc4c(N5C[C@H]6CC[C@@H](C5)N6)nc(OCC56CCCN5CCC6)nc4c3F)c12 [P-0573, 4-((1R,5S)-3,8-diazabicyclo[3.2.1]octan-3-yl)-8-fluoro-7-(4-(2-methoxyethyl)-1H-indol-3-yl)-2-((tetrahydro-1H-pyrrolizin-7a(5H)-yl)methoxy)quinazoline]	0.0001 to 10
OCc1cccc2[nH]cc(-c3ccc4c(N5C[C@H]6CC[C@@H](C5)N6)nc(OCC56CCCN5CCC6)nc4c3F)c12 [P-0574, (3-(4-((1R,5S)-3,8-diazabicyclo[3.2.1]octan-3-yl)-8-fluoro-2-((tetrahydro-1H-pyrrolizin-7a(5H)-yl)methoxy)quinazolin-7-yl)-1H-indol-4-yl)methanol]	0.0001 to 10
CC(C)C(COC(=O)C(F)(F)F)COc1nc(N2C[C@H]3CC[C@@H](C2)N3)c2ccc(-c3cc(O)cc4ccccc34)c(F)c2n1 (stereo partly drawn) [P-0575, 2-(((4-((1R,5S)-3,8-diazabicyclo[3.2.1]octan-3-yl)-8-fluoro-7-(3-hydroxynaphthalen-1-yl)quinazolin-2-yl)oxy)methyl)-3-methylbutyl 2,2,2-trifluoroacetate]	0.0001 to 10
OCC1(C(F)(F)F)CCN(c2nc(N3C[C@H]4CC[C@@H](C3)N4)c3ccc(-c4cc(O)cc5ccccc45)c(F)c3n2)C1 (stereo partly drawn) [P-0576, 4-(4-((1R,5S)-3,8-diazabicyclo[3.2.1]octan-3-yl)-8-fluoro-2-(3-(hydroxymethyl)-3-(trifluoromethyl)pyrrolidin-1-yl)quinazolin-7-yl)naphthalen-2-ol]	0.0001 to 10
NC1(CO)CN(c2nc(N3C[C@H]4CC[C@@H](C3)N4)c3ccc(-c4cc(O)cc5ccccc45)c(F)c3n2)C1 [P-0577, 4-(2-(3-amino-3-(hydroxymethyl)azetidin-1-yl)-4-((1R,5S)-3,8-diazabicyclo[3.2.1]octan-3-yl)-8-fluoroquinazolin-7-yl)naphthalen-2-ol]	0.0001 to 10
CCC1(N)CN(c2nc(N3C[C@H]4CC[C@@H](C3)N4)c3ccc(-c4cc(O)cc5ccccc45)c(F)c3n2)C1 [P-0578, 4-(2-(3-amino-3-ethylazetidin-1-yl)-4-((1R,5S)-3,8-diazabicyclo[3.2.1]octan-3-yl)-8-fluoroquinazolin-7-yl)naphthalen-2-ol]	0.0001 to 10
OCC1(CNc2nc(N3C[C@H]4CC[C@@H](C3)N4)c3ccc(-c4cc(O)cc5ccccc45)c(F)c3n2)CC(F)(F)C1 [P-0579, 4-(4-((1R,5S)-3,8-diazabicyclo[3.2.1]octan-3-yl)-2-(((3,3-difluoro-1-(hydroxymethyl)cyclobutyl)methyl)amino)-8-fluoroquinazolin-7-yl)naphthalen-2-ol]	0.0001 to 10
NCC1(COc2nc(N3C[C@H]4CC[C@@H](C3)N4)c3ccc(-c4cc(O)cc5ccccc45)c(F)c3n2)CC(F)(F)C1 [P-0580, 4-(2-((1-(aminomethyl)-3,3-difluorocyclobutyl)methoxy)-4-((1R,5S)-3,8-diazabicyclo[3.2.1]octan-3-yl)-8-fluoroquinazolin-7-yl)naphthalen-2-ol]	0.0001 to 10
OCC1(CNc2nc(N3C[C@H]4CC[C@@H](C3)N4)c3ccc(-c4cc(O)cc5ccccc45)c(F)c3n2)COC1 [P-0581, 4-(4-((1R,5S)-3,8-diazabicyclo[3.2.1]octan-3-yl)-8-fluoro-2-(((3-(hydroxymethyl)oxetan-3-yl)methyl)amino)quinazolin-7-yl)naphthalen-2-ol]	0.0001 to 10
OCC1(CNc2nc(N3C[C@H]4CC[C@@H](C3)N4)c3ccc(-c4cc(O)cc5ccccc45)c(F)c3n2)CC1 [P-0582, 4-(4-((1R,5S)-3,8-diazabicyclo[3.2.1]octan-3-yl)-8-fluoro-2-(((1-(hydroxymethyl)cyclopropyl)methyl)amino)quinazolin-7-yl)naphthalen-2-ol]	0.0001 to 10
OCC1(COc2nc(N3C[C@H]4CC[C@@H](C3)N4)c3ccc(-c4cc(O)cc5ccccc45)c(F)c3n2)CC(O)C1 (stereo partly drawn) [P-0583, 4-(4-((1R,5S)-3,8-diazabicyclo[3.2.1]octan-3-yl)-8-fluoro-2-((3-hydroxy-1-(hydroxymethyl)cyclobutyl)methoxy)quinazolin-7-yl)naphthalen-2-ol]	0.0001 to 10
OCC(COc1nc(N2C[C@H]3CC[C@@H](C2)N3)c2ccc(-c3cc(O)cc4ccccc34)c(F)c2n1)c1ccccc1 (stereo partly drawn) [P-0584, 4-(4-((1R,5S)-3,8-diazabicyclo[3.2.1]octan-3-yl)-8-fluoro-2-(3-hydroxy-2-phenylpropoxy)quinazolin-7-yl)naphthalen-2-ol]	0.0001 to 10
CC(C)(C)C(CO)COc1nc(N2C[C@H]3CC[C@@H](C2)N3)c2ccc(-c3cc(O)cc4ccccc34)c(F)c2n1 (stereo partly drawn) [P-0585, 4-(4-((1R,5S)-3,8-diazabicyclo[3.2.1]octan-3-yl)-8-fluoro-2-(2-(hydroxymethyl)-3,3-dimethylbutoxy)quazolin-7-yl)naphthalen-2-ol]	0.0001 to 10
CC(C)C(CO)COc1nc(N2C[C@H]3CC[C@@H](C2)N3)c2ccc(-c3cc(O)cc4ccccc34)c(F)c2n1 (stereo partly drawn) [P-0586, 4-(4-((1R,5S)-3,8-diazabicyclo[3.2.1]octan-3-yl)-8-fluoro-2-(2-(hydroxymethyl)-3-methylbutoxy)quinazolin-7-yl)naphthalen-2-ol]	0.0001 to 10

Reference: US20230081426A1, “COMPOUNDS AND METHODS FOR KRAS MODULATION AND INDICATIONS THEREFOR” (Plexxikon Inc., priority 2020, published 2023)
